For one data set, the target named is T1, human α-thrombin (Homo sapiens, UniProt P00734).
T1 construct: 50 μl human α-thrombin (Kordia); purchased Kordia
Nature of the data set: Determination of Ki for thrombin inhibition (chromogenic or fluorogenic substrate, Dixon). The data set is classed as biochemical. To be noted: for KiTrypsin/KiThrombin: Example 8, selectivity quotient. As to the method:
The Ki values are the average values of at least three calculations.
For determining the thrombin inhibiting effect of all reversibly binding inhibitors and inhibitor conjugates with inhibiting constants smaller than 1 nM, a fluorescence spectrometer (LS50B from the company Perkin Elmer) was used. […] The Ki values are the average values of at least three calculations.

The target in a further data set is T2, trypsin (Bos taurus, UniProt P00760).
T2 sequence (P00760 24-246): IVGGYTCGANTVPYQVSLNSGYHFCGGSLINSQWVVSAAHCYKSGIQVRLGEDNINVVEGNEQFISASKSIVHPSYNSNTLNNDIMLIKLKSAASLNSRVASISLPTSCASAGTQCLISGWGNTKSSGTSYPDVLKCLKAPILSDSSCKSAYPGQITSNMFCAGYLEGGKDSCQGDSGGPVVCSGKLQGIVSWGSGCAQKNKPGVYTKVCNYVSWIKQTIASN
Nature of the data set: Ki values for trypsin, determined analogously. Format: biochemical. As to the method:
The Ki values for trypsin were determined analogously.
For optimizing the inhibitor conjugates, in particular of the following Examples 1 and 2, suitable groups R1 were sought which allow as strong a thrombin inhibition as possible. For examining the selectivity of the compounds, the inhibiting constants for trypsin were determined as well. The higher the quotient [KiTrypsin/KiThrombin], the more selectively the compound functions as a thrombin inhibitor. In order to facilitate the synthesis, this optimization was first carried out without coupling a polyalkylene glycol group to inhibitor molecules of formula (II) as listed in Table I. These compounds, which are active as thrombin inhibitors themselves, can be used as synthetic intermediates for the inhibitor conjugates of formula (I). As a central component, a glycyl-prolyl-dipeptide was consistently incorporated into the inhibitors.

Another data set deals with plasmin (Homo sapiens, UniProt P00747). Nature of the data set: Inhibiting constants with respect to plasmin. To be noted: Example 8a table. The data set is classed as biochemical. The source says:
(§1) For this reason, two selected representatives of the inhibitors without PEG described in Tables 1 and 2 and one PEG-coupled inhibitor were examined with respect to their inhibiting effect on these enzymes.
(§2) Inhibiting constants of selected inhibitors with respect to the enzymes thrombin, plasmin, urokinase and tPA (values given in nM).

Another data set deals with urokinase (Homo sapiens, UniProt P00749). Put plainly: Inhibiting constants with respect to urokinase. Particulars: Example 8a table. The data set is classed as biochemical.
Description: as §1, §2

The next data set deals with tPA (Homo sapiens, UniProt P00750). Put plainly: Inhibiting constants with respect to tPA. The data set is classed as biochemical. To be noted: Example 8a table.
Chain of tPA (P00750 36-562, species assumed): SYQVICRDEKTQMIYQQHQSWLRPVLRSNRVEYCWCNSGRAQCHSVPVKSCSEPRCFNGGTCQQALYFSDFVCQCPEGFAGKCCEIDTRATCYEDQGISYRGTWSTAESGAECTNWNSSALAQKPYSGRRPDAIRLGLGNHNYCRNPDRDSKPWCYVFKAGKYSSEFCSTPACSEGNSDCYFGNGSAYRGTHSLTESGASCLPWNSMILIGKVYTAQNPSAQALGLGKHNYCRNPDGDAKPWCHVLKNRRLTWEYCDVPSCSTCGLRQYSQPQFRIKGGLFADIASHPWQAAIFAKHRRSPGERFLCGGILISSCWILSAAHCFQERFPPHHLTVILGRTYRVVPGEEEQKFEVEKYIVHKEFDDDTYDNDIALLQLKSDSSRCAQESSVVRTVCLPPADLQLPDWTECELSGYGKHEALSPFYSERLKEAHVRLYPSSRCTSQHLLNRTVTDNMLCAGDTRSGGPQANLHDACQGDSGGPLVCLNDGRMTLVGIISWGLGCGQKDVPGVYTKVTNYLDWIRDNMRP
Description: as §1, §2

Data set [1] can be described thus: Elimination of the inhibitor conjugates in rats (blood level, urine recovery, clotting test). Format: in vivo. Particulars: female, Wistar, rat; for half-life: blood. The method, then:
Preliminary remarks: Female Wistar rats with a body weight between 150 to 250 g were used for the experiments. The animals were kept under conventional conditions and were provided with standard food and water ad libitum. Anaesthetization was carried out with 1.5 g ethylurethane per kg of body weight. Then the right and left jugular veins were prepared and catheters were inserted so that blood could be drawn at different points of time. The urine was collected throughout the entire test period and the inhibitor concentration was determined by means of a clotting test.

The target in data set [2] is T3, thrombin (Homo sapiens, UniProt P00734). To be noted: taken from the literature, cited from earlier work.
For data set [3], the target named is T3, thrombin. Nature of the data set: Kinetic constants of chloromethyl ketone inhibitors (method of Stein and Trainor). The data set is classed as biochemical. To be noted: chloromethyl ketone inhibitor; for Ki: read-out: Kii.
Where [4] appears, read: Table 2, formula (III) compounds.
Setting [5] is: Table I, formula (II) compounds.
Setting [6] is: Example 8, read-out: KiThrombin.

Data on 25 molecules can be found in US7407982B2, “Oligo or polyalkylene glycol-coupled thrombin inhibitors” (HaemoSys GmbH, priority 2001, dated 2008).

Where two headings read alike, the source gives them in different places.

As usually defined, the kinact is the rate constant of inactivation at saturating inhibitor.

Chain of plasmin (P00747 581-810 limits assumed, species assumed): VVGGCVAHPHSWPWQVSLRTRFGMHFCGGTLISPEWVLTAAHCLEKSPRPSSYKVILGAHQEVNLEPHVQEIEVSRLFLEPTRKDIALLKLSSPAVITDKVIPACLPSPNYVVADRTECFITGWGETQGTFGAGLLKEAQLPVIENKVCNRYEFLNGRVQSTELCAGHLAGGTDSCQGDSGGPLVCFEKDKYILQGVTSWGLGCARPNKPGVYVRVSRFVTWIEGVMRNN
Chain of plasmin (P00747 97-580 partner limits assumed, species assumed): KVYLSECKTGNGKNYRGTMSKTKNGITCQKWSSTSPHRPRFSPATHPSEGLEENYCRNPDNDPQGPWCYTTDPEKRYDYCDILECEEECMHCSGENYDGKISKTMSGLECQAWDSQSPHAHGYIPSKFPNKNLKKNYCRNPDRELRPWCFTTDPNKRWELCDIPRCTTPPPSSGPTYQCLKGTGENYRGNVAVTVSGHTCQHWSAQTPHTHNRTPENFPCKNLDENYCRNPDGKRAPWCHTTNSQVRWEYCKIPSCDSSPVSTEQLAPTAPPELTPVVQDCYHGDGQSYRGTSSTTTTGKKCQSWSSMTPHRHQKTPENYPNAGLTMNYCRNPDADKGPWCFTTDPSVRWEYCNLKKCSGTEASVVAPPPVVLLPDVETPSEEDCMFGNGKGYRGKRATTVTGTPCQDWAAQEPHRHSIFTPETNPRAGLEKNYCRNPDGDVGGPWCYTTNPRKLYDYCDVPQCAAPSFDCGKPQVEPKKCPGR

`COc1ccc(S(=O)(=O)N[C@@H](CO)C(=O)N2CCC[C@H]2C(=O)NCc2ccc(C(=N)N)cc2)cc1` [compound 51]: the Ki at human α-thrombin (setting [4]) was found to be 0.255 nM; on trypsin (setting [4]), 17 nM. For the same molecule, the “Ki Trypsin/Ki Thrombin” value at human α-thrombin (Table 2, selectivity quotient) is on record as 67.
With `N=C(N)c1ccc(CNC(=O)[C@@H]2CCCN2C(=O)[C@@H](CC(N)=O)NS(=O)(=O)c2ccc3ccccc3c2)cc1` [compound 43], the Ki on human α-thrombin (setting [4]) stood at 52.5 nM; on trypsin (setting [4]), 22.4 nM. In addition, at human α-thrombin (Table 2, selectivity quotient), the “Ki Trypsin/Ki Thrombin” value is given as 0.42.
With `COc1ccc(S(=O)(=O)NC(CC(N)=O)C(=O)N2CCCC2C(=O)NCc2ccc(C(=N)N)cc2)cc1` (centres unmarked) [compound 50], the Ki at human α-thrombin (setting [4]) worked out at 0.36 nM; on plasmin, 17500 nM; at urokinase it was 52000 nM; at tPA, 47000 nM. For the same molecule, the “Ki Trypsin/Ki Thrombin” value at human α-thrombin (Table 2, selectivity quotient) amounted to 147.
As for `N=C(N)c1ccc(CNC(=O)[C@@H]2CCCN2C(=O)[C@H](CC(=O)OCc2ccccc2)NS(=O)(=O)c2ccc3ccccc3c2)cc1` [compound 36], the Ki at human α-thrombin (setting [4]) worked out at 1.3 nM; at trypsin (setting [4]), 17.6 nM. For the same molecule, the “Ki Trypsin/Ki Thrombin” value on human α-thrombin (Table 2, selectivity quotient) was 13.6.
As for `Cc1c(C)c(S(=O)(=O)NCC(=O)N2CCC[C@H]2C(=O)NCc2ccc(C(=N)N)cc2)c(C)c2c1OC(C)(C)C2` [compound 28], the figures for the Ki on human α-thrombin (setting [5]) and at trypsin (setting [5]) were 30.3 nM and 37.1 nM, respectively. Moreover, the “Ki Trypsin/Ki Thrombin” value on human α-thrombin (Table I, selectivity quotient) stood at 1.2.
Regarding “D-N(CH2—CO—NH-PEG5000-OMe)Cha-Pro-4-(amidomethyl)-N(amidino)piperidine×2 HCl”, the KiTrypsin/KiThrombin at human α-thrombin turned out to be 100. In addition, the Ki at human α-thrombin (setting [6]) came to 2.4 nM; at human α-thrombin (setting [5]), 3.5 nM; at trypsin (Example 8, read-out: KiTrypsin), 239 nM; at trypsin (setting [5]), 6.2 nM. In addition, the “Ki Trypsin/Ki Thrombin” value at human α-thrombin (Table I, selectivity quotient) was found to be 1.8.
Turning to `N=C(N)N1CCC(CNC(=O)[C@@H]2CCCN2C(=O)[C@@H](CC2CCCCC2)NCC(=O)O)CC1` [formula (IV)], the half-life in data set [1] (intravenous administration of 10 mg/kg) was around 0.275 h. In addition, the dose excreted in data set [1] (urine, sc, rats, subcutaneous administration, read-out: cumulative percentage recovery in the urine) is around 58%.
As to `COc1ccc(S(=O)(=O)N[C@@H](CC(=O)OCc2ccccc2)C(=O)N2CCC[C@H]2C(=O)NCc2ccc(C(=N)N)cc2)cc1` [compound 49], the values for the Ki on human α-thrombin (setting [4]) and at trypsin (setting [4]) were 0.21 nM and 38 nM, respectively. Further, on human α-thrombin (Table 2, selectivity quotient), the “Ki Trypsin/Ki Thrombin” value turned out to be 181.
The corresponding values for `COc1ccc(S(=O)(=O)N[C@@H](CC(=O)NCc2ccc(C#N)cc2)C(=O)N2CCC[C@H]2C(=O)NCc2ccc(C(=N)N)cc2)cc1` [compound 44] are 0.045 nM, 41 nM and 911.
For the molecule “H-D-N(CH2—CO—NH-PEG5000-OMe)Cha-Pro-4-(amidino)benzylamide”, the KiTrypsin/KiThrombin on human α-thrombin is listed as 3.5. The Ki stood at 0.97 nM on human α-thrombin (setting [6]); 1.9 nM at human α-thrombin (setting [5]); 3.4 nM on trypsin (Example 8, read-out: KiTrypsin); 3 nM on trypsin (setting [5]). In addition, the “Ki Trypsin/Ki Thrombin” value at human α-thrombin (Table I, selectivity quotient) amounted to 1.6.
On to `CC(C)c1cc(C(C)C)c(S(=O)(=O)NCC(=O)N2CCC[C@H]2C(=O)NCc2ccc(C(=N)N)cc2)c(C(C)C)c1` [compound 19], for which the Ki at human α-thrombin (setting [5]) was 13.5 nM; on trypsin (setting [5]), 9.1 nM. For the same molecule, the “Ki Trypsin/Ki Thrombin” value at human α-thrombin (Table I, selectivity quotient) is on record as 0.67.
On the same counts, the results for `COc1cc(C)c(S(=O)(=O)NCC(=O)N2CCC[C@H]2C(=O)NCc2ccc(C(=N)N)cc2)c(C)c1C` [compound 2] are 1.3 nM, 15.7 nM and 12.1.
Molecule “4-methoxy-benzenesulfonyl-Asn(PEG2000-OMe)-Pro-4-amidinobenzylamide” gave a KiTrypsin/KiThrombin on human α-thrombin of 174. Also, the Ki is 0.53 nM at human α-thrombin (setting [6]); 33500 nM on plasmin; 92.5 nM on trypsin (Example 8, read-out: KiTrypsin); 157000 nM at urokinase; 599000 nM on tPA.
Regarding `N=C(N)N1CCC(CNC(=O)[C@@H]2CCCN2C(=O)[C@@H](CC2CCCCC2)NCC(=O)NCC2COCCOCCOCCOCCO2)CC1` (some centres unmarked) [inhibitor structure (VI)], the half-life in data set [1] (sc, rats, subcutaneous administration of 5 mg/kg) was around 5.83 h.
On to `NC(N)=NCCC[C@H](NC(=O)[C@@H]1CCCN1C(=O)[C@H](N)Cc1ccccc1)C(=O)CCl` [PPACK, D-Phe-Pro-Arg-CH2—Cl], for which, on thrombin [2], the Kinact/Ki is 4.4e+06 M⁻¹ s⁻¹ and the kinact is 0.11 s⁻¹. For the same molecule, the Ki at thrombin [2] (read-out: Kii) is 25 nM.
For the molecule `COc1ccc(S(=O)(=O)N[C@@H](CC(=O)NCc2ccc(CN)cc2)C(=O)N2CCC[C@H]2C(=O)NCc2ccc(C(=N)N)cc2)cc1` [compound 45], the Ki on human α-thrombin (setting [4]) came to 0.061 nM; at trypsin (setting [4]) it was 39 nM. For the same molecule, the “Ki Trypsin/Ki Thrombin” value on human α-thrombin (Table 2, selectivity quotient) is 639.
On the same counts, the results for `COc1ccc(S(=O)(=O)N[C@@H](CC(=O)NCc2cccc(CN)c2)C(=O)N2CCC[C@H]2C(=O)NCc2ccc(C(=N)N)cc2)cc1` [compound 48] are 0.08 nM, 41 nM and 512.
Molecule “4-Methoxy-benzenesulfonyl-Lys(propionyl-PEG5000-OMe)-Pro-4-amidinobenzylamide” registered a KiTrypsin/KiThrombin on human α-thrombin of 64. The Ki on human α-thrombin (setting [6]) was determined as 0.95 nM; at trypsin (Example 8, read-out: KiTrypsin) it was 61 nM.
With `COc1ccc(S(=O)(=O)N[C@@H](CC(=O)NCc2ccccc2)C(=O)N2CCC[C@H]2C(=O)NCc2ccc(C(=N)N)cc2)cc1` [compound 47], the values for the Ki on human α-thrombin (setting [4]) and at trypsin (setting [4]) were 0.065 nM and 39 nM, respectively. Also, on human α-thrombin (Table 2, selectivity quotient), the “Ki Trypsin/Ki Thrombin” value was 600.
As to `N=C(N)c1ccc(CNC(=O)[C@@H]2CCCN2C(=O)CNS(=O)(=O)CC2CCCCC2)cc1` [compound 20], the results for the Ki on human α-thrombin (setting [5]) and on trypsin (setting [5]) were 13.6 nM and 3.1 nM, respectively. In addition, the “Ki Trypsin/Ki Thrombin” value at human α-thrombin (Table I, selectivity quotient) amounted to 0.22.
At human α-thrombin (setting [5]), “H-d-N(CH2—CONH-PEG2000-OMe)Cha-Pro-Arg-CH2—Cl×2 trifluoroacetic acid” yielded a Ki of 3.8 nM. In addition, at human α-thrombin (Table I, selectivity quotient), the “Ki Trypsin/Ki Thrombin” value came to 0.97. Besides, at thrombin [3], the Kinact/Ki is 7.5e+06 M⁻¹ s⁻¹, the kinact is 0.08 s⁻¹ and the Ki amounted to 10.6 nM. For the same molecule, the Ki on trypsin (setting [5]) worked out at 3.7 nM.
Regarding `N=C(N)NCCC[C@H](NC(=O)[C@@H]1CCCN1C(=O)[C@@H](CC1CCCCC1)NCC(=O)O)C(=O)CCl.O=C(O)C(F)(F)F.O=C(O)C(F)(F)F` [analogous non-PEG-coupled compound, H-d-N(CH2—COOH)Cha-Pro-Arg-CH2—Cl×2 trifluoroacetic acid, reference compound], at thrombin [3], the Kinact/Ki came to 2.1e+07 M⁻¹ s⁻¹, the kinact was found to be 0.079 s⁻¹ and the Ki is 3.8 nM.
As to `N=C(N)c1ccc(CNC(=O)[C@@H]2CCCN2C(=O)CNS(=O)(=O)CCc2ccccc2)cc1` [compound 31], the Ki on human α-thrombin (setting [5]) is 41.9 nM; at trypsin (setting [5]) it was 16.5 nM. The “Ki Trypsin/Ki Thrombin” value on human α-thrombin (Table I, selectivity quotient) turned out to be 0.39.
Turning to `COc1ccc(S(=O)(=O)NCC(=O)N2CCC[C@H]2C(=O)NCc2ccc(C(=N)N)cc2)cc1` [1c], the “Ki Trypsin/Ki Thrombin” value turned out to be 23.4 on human α-thrombin (Table 2, selectivity quotient) and 23.4 at human α-thrombin (Table I, selectivity quotient). The Ki was 0.97 nM at human α-thrombin (setting [5]), 5800 nM on plasmin, 225000 nM on urokinase and 630 nM on tPA.
In the case of `COC(=O)C[C@H](NS(=O)(=O)c1ccc(OC)cc1)C(=O)N1CCC[C@H]1C(=O)NCc1ccc(C(=N)N)cc1` [compound 52], the Ki at human α-thrombin (setting [4]) was determined as 0.68 nM; at trypsin (setting [4]), 21.4 nM. For the same molecule, the “Ki Trypsin/Ki Thrombin” value on human α-thrombin (Table 2, selectivity quotient) was found to be 31.
